Measurements as given in patent publication US20050203290A1, “Crystalline form of sucralose, and method for producing it” (priority 2003, published 2005).

How the values were obtained:
[1] = accelerated aging test (shelf life of crystalline sucralose); format: physicochemical
Description: Shelf life of crystalline sucralose is commonly estimated by performing an accelerated aging test. In this test the crystals are maintained in a controlled atmosphere at 50° C. (122° F.), and sampled periodically. Each sample is dissolved in water and the pH of a 10% solution is tracked to determine the elapsed time at which the pH drops by one unit, indicating a slight sucralose decomposition. Crystals made by traditional methods are considered stable when such decomposition is not indicated until at least 3 days in this test. This is considered equivalent to a shelf life under ambient conditions of about 8 years.

[2] = particle size analysis by light scattering (Coulter LS100Q); format: physicochemical; conditions: Isopar G isoparaffin fluid as dispersing medium
Description: Particle size analysis of the product is performed using a Coulter LS100Q Particle Size Analyzer, available from Coulter Corporation of Miami, Florida. The analyzer operates by light scattering, using Isopar™ G isoparaffin fluid, available from ExxonMobil Chemical of Houston, Tex., as the dispersing medium. The sucralose product crystals have a particle size distribution such that 90 wt. % of the sample has a particle size less than 62 μm, while 10 wt. % has a particle size less than from about 4 μm, with a mean of 30 μm.

SMILES | elapsed time until pH drop under accelerated conditions ([1]; 50° C., dried at the preferred temperature, moisture levels typical of old crystals) | stability in accelerated aging test: elapsed time until pH of a 10% solution drops by one unit ([1]; crystals kept at 50° C. (122° F.) in controlled atmosphere, Example product dried at about 60° F., moisture about 0.5 wt. %) | shelf life under typical ambient storage conditions corresponding to the accelerated aging result ([1]; extrapolated from accelerated aging test at 50° C.) | mean particle size [2] | particle size below which 10 wt. % of the sample lies [2] | particle size below which 90 wt. % of the sample lies [2]
OC[C@H]1O[C@H](O[C@]2(CCl)O[C@H](CCl)[C@@H](O)[C@@H]2O)[C@H](O)[C@@H](O)[C@H]1Cl [old crystals, 4,1′,6′-trichloro-4,1′,6′-trideoxygalactosucrose, reference compound] | 3 days | – | – | – | – | –
OC[C@H]1O[C@H](O[C@]2(CCl)O[C@H](CCl)[C@@H](O)[C@@H]2O)[C@H](O)[C@@H](O)[C@H]1Cl [sucralose product crystals, 4,1′,6′-trichloro-4,1′,6′-trideoxygalactosucrose] | – | at least 3 days | about 8 years | 30 μm | < 4 μm | less than 62 μm
